Legend:
HeLa cells = assay: Cell cycle analysis by FACS (propidium iodide); assay type: cell-based; conditions: 0.5 μM
Protocol: The influence of the C14 treatment versus C1 and control (Te) were analysed by FACS following propidium iodine labelling. C1 and C14 were added at the concentration of 0.5 μM and the treatment lasted either 30 h or 48 h. On the top histogram, arrows allowed the visualization of the different phases of the cell cycle and the corresponding data are reported in Table 4.
HeLa cells were incubated in the presence of either C1 (0.5 μM) or C14 (0.5 μM) or DMSO (Te) and the reparation of the cells in the different phases is analyzed by FACS.
Cells were incubated in either the presence or the absence of compounds. For determination of cell cycle profile, cells were fixed by ice-cold 70% ethanol for 1 h and then, incubated with propidium iodide solution (50 μg/ml PI in the presence of 0.2 mg/ml RNAse) for 15 minutes at 37° C. DNA content was measured using the FACS flow cytometer equipped with CellQuest Pro software (Becton Dickinson, San Diego, Calif.).

[1] = tested on: Hek cells stably expressing tubulin-GFP; assay: Time-lapse of Hek cells expressing tubulin-GFP; assay type: cell-based; conditions: 0.5 μM; continuous imaging
Protocol: Mitotic Hek cells stably expressing tubulin-GFP were continuously imaged and representative of either control or treated cells (C14 and C1, 0.5 μM) are shown. Elapse times are indicated on each photo.
Mitotic Hek cells stably expressing tubulin-GFP were continuously imaged and representative of either control or treated cells (C14 and C1, 0.5 μM) are shown (FIG. 8). Elapse times are indicated on each photo. In the control as well as in the presence of C1 the mitotic spindle is organized (24 min and To respectively) whereas in the presence of C14, the two poles are only connected by few microtubules (97 min and 130 min). Finally, in the presence of C14, cells escape from mitosis and cytoplasmic microtubules are observed (159 min and 212 min). Note that a duplication of the spindle occurs upon C1 treatment (106 min)

H358 cells = assay: Cell viability test (CellTiter 96 AQueous One Solution); assay type: cell-based; conditions: for IC50: Homo sapiens, NCI-H358, H358 (Lung), 72 h of treatment, read-out: IC50 (cell line viability)
Protocol: (§1) H358, H322 (lung cancer cells), U373 (glioblastomes) and HeLa ([…]) were grown in DMEM (1.5 g/L glucose) whereas HL60 (human myeloid cell line) cells were in RPMI 1640. U2OS (a human osteosarcoma cell line) cells were cultured in McCoy's Medium 5 A and liver cells (SK Hep 1) in DMEM (4 g/L glucose, (Gibco-Invitrogen). Media (Gibco-Invitrogen), were supplemented with 10% heat-inactivated foetal bovine serum (Gibco-Invitrogen), L-glutamine (2 mM), penicillin (100 UI/ml) and streptomycin (100 μg/ml).
(§2) Cell proliferation assays were conducted in 96 well culture plates. Assays were run in triplicate. Cell viability was estimated upon 72 h of treatment with varying concentrations of compound by addition of CellTiter 96Queous one Solution Reagent (Promega) directly to culture wells under conditions defined by the manufacturer.

U2OS = assay: as above; assay type: cell-based; conditions: Homo sapiens; U2OS (Osteosarcoma); 72 h of treatment; read-out: IC50 (cell line viability) (converted)
Protocol: as §1, §2

HL60 = assay: as above; assay type: cell-based; conditions: Homo sapiens, HL-60; HL60 (Leukemia); 72 h of treatment; read-out: IC50 (cell line viability)
Protocol: as §1, §2

U373 = assay: as above; assay type: cell-based; conditions: Homo sapiens, U373 MG; U373 (Glioblastoma); 72 h of treatment; read-out: IC50 (cell line viability)
Protocol: as §1, §2

Src = Src (Homo sapiens, UniProt P12931); assay: In vitro assay against recombinant kinases (FIG. 2); assay type: biochemical
Src, sequence (P12931 whole entry, species assumed): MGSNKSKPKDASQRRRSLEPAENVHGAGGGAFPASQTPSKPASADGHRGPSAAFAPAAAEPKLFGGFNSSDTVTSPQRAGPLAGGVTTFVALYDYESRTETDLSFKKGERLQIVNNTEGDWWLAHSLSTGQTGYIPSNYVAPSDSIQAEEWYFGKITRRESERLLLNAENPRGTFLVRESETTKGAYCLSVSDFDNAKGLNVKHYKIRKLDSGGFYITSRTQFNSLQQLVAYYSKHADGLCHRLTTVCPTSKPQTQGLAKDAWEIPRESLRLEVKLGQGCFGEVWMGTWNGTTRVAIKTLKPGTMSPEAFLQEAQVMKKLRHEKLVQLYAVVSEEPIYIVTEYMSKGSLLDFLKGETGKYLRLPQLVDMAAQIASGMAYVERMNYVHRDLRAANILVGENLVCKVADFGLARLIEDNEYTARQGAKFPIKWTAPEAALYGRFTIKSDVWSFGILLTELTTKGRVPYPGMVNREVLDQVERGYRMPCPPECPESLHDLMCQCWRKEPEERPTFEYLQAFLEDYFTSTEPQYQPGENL
Protocol: (§3) Assays were run in vitro against recombinant kinases. The activity is reported for each kinase, grey histograms for CH21, white for C14 and gradation grey for C1. […] Therefore, C1 and C14 affect differently the Aurora kinase family.
(§4) The profiling was performed at the MRC (Dundee University), in duplicate, on a set of 121 kinases. The panel is representative of the major different classes of kinases. Compounds were used at the concentration of 1 μM. In vitro, IC50 were determined on recombinant kinases by Reaction biology Corp (USA).

RSK1 = RSK1 (Homo sapiens, UniProt Q15418); assay: as above; assay type: biochemical
RSK1, sequence (Q15418 whole entry, species assumed): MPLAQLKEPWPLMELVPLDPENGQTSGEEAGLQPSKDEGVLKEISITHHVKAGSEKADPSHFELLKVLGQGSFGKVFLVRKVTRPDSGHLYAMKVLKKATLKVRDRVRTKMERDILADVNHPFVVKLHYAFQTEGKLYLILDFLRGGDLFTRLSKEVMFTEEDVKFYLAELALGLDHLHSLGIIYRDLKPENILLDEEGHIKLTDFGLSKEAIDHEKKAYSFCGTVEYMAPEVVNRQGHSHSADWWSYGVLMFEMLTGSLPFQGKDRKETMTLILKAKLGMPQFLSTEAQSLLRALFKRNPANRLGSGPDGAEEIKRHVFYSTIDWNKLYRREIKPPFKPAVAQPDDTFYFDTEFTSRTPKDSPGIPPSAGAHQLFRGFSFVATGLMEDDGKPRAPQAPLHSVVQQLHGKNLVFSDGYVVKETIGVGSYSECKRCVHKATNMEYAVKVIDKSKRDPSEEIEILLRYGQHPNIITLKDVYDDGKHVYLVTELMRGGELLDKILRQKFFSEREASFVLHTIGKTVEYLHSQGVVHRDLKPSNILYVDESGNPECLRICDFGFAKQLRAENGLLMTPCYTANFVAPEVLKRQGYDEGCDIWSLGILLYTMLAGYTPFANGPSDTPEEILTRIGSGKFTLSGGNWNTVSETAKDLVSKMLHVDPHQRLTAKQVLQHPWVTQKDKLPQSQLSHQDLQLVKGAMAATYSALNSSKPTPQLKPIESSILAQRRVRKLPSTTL
Protocol: as §3, §4

121 kinases = assay: Kinase profiling on a set of 121 kinases; assay type: biochemical; conditions: for Known Targets (%): kinases presenting the highest inhibitions, lists not exhaustive
Protocol: FIG. 1A: The potential inhibition of C14 was tested against 121 kinases, in vitro, at the concentration of 1 μM. The kinase activities, in the presence of C14, are represented, each kinase being represented by a vertical bar. Only 18 kinases have less than 30% activity in the presence of C14.
The specificity of C14 was tested, in vitro, against 121 kinases representative of the kinome. Assays run in duplicate, at the concentration of 1 μM, were performed by MRC (Dundee, UK). Results are represented in FIG. 1. The main targets are highlighted in FIG. 1B.
as §4

Row | IC50 (H358 cells) [nM] | IC50 (U2OS) [nM] | IC50 (HL60) [nM] | effect on kinase activity (FIG. 2, in words) (Src) | effect on kinase activity (FIG. 2, in words) (RSK1) | Known Targets (%) (121 kinases) | Compound | <2N in % (HeLa cells; 30 h) [%] | >4N in % (HeLa cells; 30 h) [%] | G0/G1 in % (HeLa cells; 30 h) [%] | G2/M in % (HeLa cells; 30 h) [%] | S in % (HeLa cells; 30 h) [%] | <2N in % (HeLa cells; 48 h) [%] | >4N in % (HeLa cells; 48 h) [%] | G0/G1 in % (HeLa cells; 48 h) [%] | G2/M in % (HeLa cells; 48 h) [%] | S in % (HeLa cells; 48 h) [%] | effect on mitotic spindle (in words) [1] | IC50 (U373) [nM] | further results
1 | 145 | > 1000 | 350 | highly inhibited | highly inhibited | Aurora A Aurora B Chk2 FLT3 Melk | CCc1c[nH]c(=O)c2c1[nH]c1ccc3cc(OC)ccc3c12 [Compound C1, reference compound] | 6 | 26 | 24 | 28 | 13 | 6 | 41 | 18 | 22 | 8 | induced its duplication | > 1000 | cells still cycling (HeLa cells; after 48 h of treatment): 48%
2 | 470 | 720 | > 2000 | not affected | not affected | Aurora B NUAK1 TrkA Tak1 Gck Chk1 Chk2 | Cc1c[nH]c(=O)c2c1[nH]c1ccc3cc(OCCN(C)C)ccc3c12 [Compound C14, 3-(2-N,N-Dimethylaminoethoxy)-8-methyl-7H,10H-benzo[e]pyrido(4,3-b)indol-11-one] | 19 | 56 | 3 | 18 | 4 | 22 | 56 | 2 | 4 | 2 | prevented mitotic spindle organization | 3100 | cells in G0/G1 and S (HeLa cells; 30 h): 7%; cells in G0/G1 and S (HeLa cells; 48 h): 5%; death of cycling cells (H358 cells; 0.5 μM, cycling H358 cells): more than 50%; number of kinases with less than 30% activity in the presence of compound (121 kinases; 121 kinases tested in vitro at 1 μM): 18

Row | Compound | IC50 (H358 cells) [nM] | IC50 (U2OS) [nM] | IC50 (HL60) [nM] | effect on kinase activity (FIG. 2, in words) (Src) | effect on kinase activity (FIG. 2, in words) (RSK1) | Known Targets (%) (121 kinases) | <2N in % (HeLa cells; 30 h) [%] | >4N in % (HeLa cells; 30 h) [%] | G0/G1 in % (HeLa cells; 30 h) [%] | G2/M in % (HeLa cells; 30 h) [%] | S in % (HeLa cells; 30 h) [%] | <2N in % (HeLa cells; 48 h) [%] | >4N in % (HeLa cells; 48 h) [%] | G0/G1 in % (HeLa cells; 48 h) [%] | G2/M in % (HeLa cells; 48 h) [%] | S in % (HeLa cells; 48 h) [%] | effect on mitotic spindle (in words) [1] | IC50 (U373) [nM] | further results
3 | Cc1cncc2c1[nH]c1ccc3cc(OCCN(C)C)ccc3c12 [CH21, 3-(2-N,N-dimethylaminoethyloxy)-8-methyl-7H-benzo[e]pyrido(4,3-b)indole] | 450 | 1100 | > 2000 | None of these kinases were significantly affected | None of these kinases were significantly affected | NUAK1 TrkA Tak1 Gck Flt3 | – | – | – | – | – | – | – | – | – | – | – | 360 | –
